The test system of test [1] is C57BL/6J diabetic model mice. In words: Four blood lipid items in serum of treated mice (T-CHO, TG, HDL-C, LDL-C kits). The class given is in vivo, C57BL/6J mice. The following applies: subcutaneous rhCygb 5 mg/kg or exendin-4 50 μg/kg, after 28 d of treatment. On the procedure:
(§1) The AUC for blood glucose changes within two hours post-glucose gavage was shown in FIG. 5, confirming impaired glucose tolerance in the DM group. • 2) Successfully modeled mice were divided into three groups based on no statistical difference in blood glucose within groups and statistical difference in blood glucose between groups: wherein the three groups are rhCygb treatment group (5 mg/kg subcutaneous injection), exendin-4 treatment group (50 μg/kg subcutaneous injection), and placebo group (0.1 mL PBS subcutaneous injection) (grouping without re-caging, mice remained in original cages), respectively.
(§2) The mice of placebo group, rhCygb treatment group, and EX-4 treatment group received daily subcutaneous injections of PBS, rhCygb, or EX-4, respectively for 2 months (frequency adjusted based on survival status of mice). […] Absorbance at 510 nm was measured using a microplate reader. Cholesterol content was calculated according to the formula: […]
Serum from each treated C57BL/6J mouse was assayed using a total cholesterol assay kit. […] Absorbance at 510 nm was measured using a microplate reader. […] content was calculated according to the formula: […]
Serum from each treated C57BL/6J mouse was assayed using a triglyceride assay kit. […] Absorbance at 546 nm (A1) was measured using a microplate reader. […] Absorbance at 546 nm (A2) was measured again. […]

Test [2] relates to pancreatic tissue of C57BL/6J diabetic model mice. In words: H&E staining of pancreatic tissue sections. The class given is in vivo, C57BL/6J mice. The note with it: acinar cell steatosis, islet morphology, inflammation; FIGS. 12A-12D. On the procedure: as §1, §2
The severity of lesions observed in the HE-stained pathological sections of each mouse was graded. This ordinal data was analyzed using the K Independent Samples non-parametric test in SPSS software, and the result indicated a statistically significant difference between groups. As SPSS lacks pairwise comparison for multiple independent samples, all data were ranked and converted into quantitative data, then subjected to one-way ANOVA.

The record followed here is patent US20260216299A1, “Use of Cytoglobin in Preparation of Drug for Preventing and/or Treating Diabetes” (priority 2022, published 2026).

Exendin-4 [reference compound]: the total cholesterol levels result in test [1] (FIG. 8) is “statistically significant reduction in total cholesterol levels compared to the placebo group”. Moreover, in test [1] (FIG. 11), the LDL-C levels result is reported as “statistically significant reduction in LDL-C levels compared to the placebo group”. In addition, the “pancreatic tissue morphology (H&E)” value in test [2] is “persistent acinar steatosis similar to the PBS group”.
